From patent US20220104486A1 (priority 2019, published 2022)
Read-outs that look alike come from different tables or passages of the source.

Test system: Fusarium graminearum
Assay type: in vivo
Settings: seed treatment 0.3 mg ai/seed
[1] = corn, 36 days after planting, F. graminearum inoculum in furrow

## O=C(NCCc1ncc(C(F)(F)F)cc1Cl)c1ccccc1C(F)(F)F [Fluopyram]
Corn (Zea mays, variety N29t), plant stand 36 days after planting, F. graminearum inoculum in furrow, on base treatment
  Count plant number per 12 row meter: 54.58, B per 12 row meter
Corn field trial, high disease pressure
  efficacy against Fusarium graminearum, in words: moderate control
[1]
  % efficacy based on loss of plants due to disease: 49.95%
  % loss of plants due to disease based on a maximum of 60 plants per 12 row meters: 9.03%
corn, 36 days after planting, F. graminearum inoculum in furrow, listed as commercial standard
  % loss of plants due to disease based on a maximum of 60 plants per 12 row meters: 9%
